Experimental data from US4296108A, “2,2-Dichlorocyclopropyl-methyl-phosphoric acid derivatives” (priority 1979, dated 1981).

What was measured:
Assay type in all cases: in vivo
[1] = tested on: cockroaches (Blatta orientalis); experiment: whole plant or invertebrate; details: 48 hours; for mortality at 0.2 mg: 0.2 mg active ingredient per jar; for mortality at 0.1 mg: 0.1 mg active ingredient per jar
Protocol: Contact action on cockroaches (Blatta orientalis)
The bottom of 1-liter preserving jars is treated with acetonic solutions of the active ingredients. After the solvent has evaporated, 5 adult cockroaches are placed in each jar, and the kill rate is determined after 48 hours.

[2] = tested on: ticks (Ornithodorus moubata); experiment: Contact action on ticks (Ornithodorus moubata); details: 3rd larval stage, 48 hours
Protocol: Contact action on ticks (Ornithodorus moubata)
Ticks in the 3rd larval stage are placed in paper bags and dipped for 3 seconds in the emulsion under investigation. The bags are then suspended. The action on the ticks is assessed after 48 hours.

[3] = tested on: caterpillars of the diamondback moth (Plutella maculipennis); experiment: Contact action and effect of ingested food on caterpillars of the diamondback moth (Plutella maculipennis); details: 4th stage caterpillars, 48 hours, read-out: Kill rate; for mortality at 0.02 %: 0.02 wt % in emulsion; for mortality at 0.01 %: 0.01 wt % in emulsion; for mortality at 0.001 %: 0.001 wt % in emulsion; for mortality at 0.002 %: 0.002 wt % in emulsion
Protocol: Contact action and effect of ingested food on caterpillars of the diamondback moth (Plutella maculipennis)
Leaves of young cabbage plants are dipped for 3 seconds in aqueous emulsions of the active ingredients and, after excess liquid has been briefly allowed to drip off, placed on a moist filter paper in a Petri dish. 10 caterpillars of the 4th stage are then placed on each leaf.
(§1) The action is assessed after 48 hours.

[4] = tested on: bean aphids (Aphis fabae); experiment: Contact action on bean aphids (Aphis fabae); spray experiment; details: 48 hours; for mortality at 0.005 %: 0.005 wt % in formulation; for mortality at 0.01 %: 0.01 wt % in formulation
Protocol: Contact action on bean aphids (Aphis fabae); spray experiment
Potted bean plants (Vicia faba) with extensive bean aphid colonies are sprayed to runoff in a spray booth with aqueous formulations of the active ingredients.
as §1

[5] = tested on: houseflies (Musca domestica); experiment: Contact action on houseflies (Musca domestica), topical to ventral abdomen; details: 1 μl in acetone to ventral abdomen; 4-day old imagoes; 4 hours; worked out by graph
Protocol: Contact action on houseflies (Musca domestica)
1 μl of the active ingredients dissolved in acetone is administered by means of a microsyringe to the ventral abdomen of 4-day old imagoes under slight CO2 narcosis.
20 animals treated in the same way are then placed in a plastic bag having a volume of approx. 500 ml. After 4 hours, the animals in supine position are counted and the LD50 is worked out by means of a graph.

[6] = tested on: houseflies (Musca domestica); experiment: whole plant or invertebrate; details: 4 hours; for mortality at 0.02 mg: 0.02 mg active ingredient per dish
Protocol: Continuous contact action on houseflies (Musca domestica)
Both covers and bottoms of Petri dishes 10 cm in diameter are lined with a total per dish of 2 ml of acetonic solutions of the active ingredients. After the solvent has evaporated (about 30 mins.), 10 flies are introduced into each dish. The kill rate is determined after 4 hours.

[7] = tested on: root-knot nematodes (Meloidogyne incognita); experiment: Action on root-knot nematodes (Meloidogyne incognita); details: cucumber, 6 to 8 weeks
Protocol: Action on root-knot nematodes (Meloidogyne incognita)
Garden soil heavily infested with Meloidogyne incognita is split into 200 g portions which are intimately mixed with 30 ml of aqueous active ingredient formulations and filled into plastic pots. Two cucumber seeds are then placed in the soil prepared in this manner. The temperature is not allowed to go below +22° C.
After 6 to 8 weeks root attack is assessed.

[8] = Aphis fabae, 0.02 wt % in formulation, read-out: Kill rate
[9] = Aphis fabae, read-out: Kill rate
[10] = Musca domestica, read-out: Kill rate
[11] = Blatta orientalis, read-out: Kill rate
[12] = Musca domestica, 0.2 mg active ingredient per dish, read-out: Kill rate

Compound: CCOP(=O)(OCC1C(C)(C)C1(Cl)Cl)Oc1ccc([N+](=O)[O-])cc1 (centres unmarked) [Active ingredient 1, O-ethyl-O-[(2,2-dichloro-3,3-dimethyl-cyclopropyl)-methyl]-O-(4-nitrophenyl)phosphate]
- mortality at 0.25 mg ([1]; Blatta orientalis, 0.25 mg active ingredient per jar, 5 adult cockroaches, read-out: Kill rate): 80%
- Kill rate ([2]; 10.0 ppm in emulsion): 100%
- mortality at 0.02 % [3]: 100%
- mortality at 0.02 % [4, 8]: 100%

Compound: COP(=O)(OCC1CC1(Cl)Cl)Oc1ccccc1[N+](=O)[O-] (centres unmarked) [Active ingredient 3, O-methyl-O-[(2,2-dichlorocyclopropyl)-methyl]-O-(2-nitrophenyl)phosphate]
- mortality at 0.005 % [4, 9]: 100%

Compound: COP(=O)(OCC1CC1(Cl)Cl)Oc1cc(Cl)c(Cl)cc1Cl (centres unmarked) [Active ingredient 4, O-methyl-O-[(2,2-dichloro-cyclopropyl)-methyl]-O-(2,4,5-trichlorophenyl)phosphate]
- LD50 [5]: 0.055 μg/fly
- Kill rate ([2]; 5.0 ppm in emulsion): 100%
- mortality at 0.02 mg [6, 10]: 100%
- mortality at 0.01 % [4, 9]: ~90%

Compound: COP(=S)(OC)Oc1cc(Cl)c(Cl)cc1Cl [III]
- mortality at 0.5 mg ([1]; Blatta orientalis, 0.5 mg active ingredient per jar, read-out: Kill rate): 100%
- LD50 [5]: 0.13 μg/fly
- mortality at 0.02 % [3]: 50%

Compound: CCOP(=S)(Oc1ccc(Cl)cc1Cl)c1ccccc1 (centres unmarked) [II]
- Kill rate ([1]; 1.0 mg active ingredient per jar): ineffective
- Kill rate ([6]; 0.2 mg active ingredient per dish): ineffective
- Kill rate ([4]; 0.02 wt % in formulation): < 80%

Compound: COP(=S)(OC)Oc1ccc([N+](=O)[O-])c(C)c1 [IV]
- Kill rate ([1]; 0.25 mg active ingredient per jar, 5 adult cockroaches): ineffective

Compound: CCOP(=S)(OCC)SCC1CC1(Cl)Cl (centres unmarked) [I]
- mortality at 5 mg ([1]; Blatta orientalis, 5.0 mg active ingredient per jar, read-out: Kill rate): 100%
- mortality at 2 mg ([6]; Musca domestica, 2.0 mg active ingredient per dish, read-out: Kill rate): 100%
- mortality at 0.1 % ([3]; 0.1 wt % in emulsion): 50%
- mortality at 0.1 % ([4]; Aphis fabae, 0.1 wt % in formulation, read-out: Kill rate): < 50%
- root attack (root-knots) ([7]; 0.1 % active ingredient concentration, ditto mark repeats "no root-knots"): sporadic root-knots

Compound: COP(=O)(OCC1C(C)(C)C1(Cl)Cl)Oc1ccc([N+](=O)[O-])cc1 (centres unmarked) [compound 7]
- mortality at 0.2 mg [1, 11]: 100%
- Kill rate ([2]; 10.0 ppm in emulsion): 100%
- mortality at 0.2 mg [6, 12]: 100%
- mortality at 0.01 % [3]: 80%
- mortality at 0.01 % [4, 9]: ~90%

Compound: COP(=O)(OCC1(C)CC1(Cl)Cl)Oc1ccc([N+](=O)[O-])cc1 (centres unmarked) [compound 10]
- mortality at 0.04 mg ([1]; Blatta orientalis, 0.04 mg active ingredient per jar, read-out: Kill rate): 100%
- Kill rate ([2]; 10.0 ppm in emulsion): 100%
- mortality at 0.2 mg [6, 12]: 100%
- mortality at 0.01 % [3]: 100%
- mortality at 0.01 % [4, 9]: 100%

Compound: COP(=O)(OCC1C(C)(C)C1(Cl)Cl)Oc1ccccc1[N+](=O)[O-] (centres unmarked) [compound 14]
- Kill rate ([2]; 10.0 ppm in emulsion): 100%

Compound: COP(=O)(OCC1(C)CC1(Cl)Cl)Oc1cc(Cl)c(Cl)cc1Cl (centres unmarked) [compound 16]
- root attack (root-knots) ([7]; 0.05 % active ingredient concentration): no root-knots

Compound: COP(=O)(OCC1C(C)(C)C1(Cl)Cl)Oc1ccc(SC)cc1 (centres unmarked) [compound 17]
- Kill rate ([2]; 2.5 ppm in emulsion): 100%
- mortality at 0.2 mg [6, 12]: 80%

Compound: CCOP(=O)(OCC1C(C)(C)C1(Cl)Cl)Oc1ccc(SC)cc1 (centres unmarked) [compound 18]
- Kill rate ([2]; 2.5 ppm in emulsion): 100%

Compound: CCOP(=O)(OCC1C(C)(C)C1(Cl)Cl)Oc1ccc(SC)c(C)c1 (centres unmarked) [compound 19]
- Kill rate ([2]; 10.0 ppm in emulsion): 100%

Compound: COP(=O)(OCC1C(C)(C)C1(Cl)Cl)Oc1ccc(SC)c(C)c1 (centres unmarked) [compound 20]
- Kill rate ([2]; 2.5 ppm in emulsion): 100%

Compound: COP(=O)(OCC1(C)CC1(Cl)Cl)Oc1ccc(SC)cc1 (centres unmarked) [compound 21]
- mortality at 0.1 mg [1, 11]: 100%
- Kill rate ([2]; 1.0 ppm in emulsion): 100%
- mortality at 0.2 mg [6, 12]: 100%

Compound: COP(=O)(OCC1CC1(Cl)Cl)Oc1ccc(C#N)cc1 (centres unmarked) [compound 23]
- mortality at 0.1 mg [1, 11]: 100%
- LD50 [5]: 0.073 μg/fly
- Kill rate ([2]; 1.0 ppm in emulsion): 100%
- mortality at 0.02 mg [6, 10]: 100%
- mortality at 0.001 % [3]: 80%
- mortality at 0.005 % [4, 9]: ~90%

Compound: COP(=O)(OCC1CC1(Cl)Cl)Oc1ccc(SC)cc1 (centres unmarked) [compound 24]
- mortality at 0.1 mg [1, 11]: 100%
- LD50 [5]: 0.051 μg/fly
- Kill rate ([2]; 1.0 ppm in emulsion): 100%
- mortality at 0.02 mg [6, 10]: 100%
- mortality at 0.002 % [3]: 80%
- mortality at 0.002 % ([4]; Aphis fabae, 0.002 wt % in formulation, read-out: Kill rate): 100%

Compound: COP(=O)(OCC1CC1(Cl)Cl)Oc1ccc(SC)c(C)c1 (centres unmarked) [compound 25]
- mortality at 0.2 mg [1, 11]: 100%
- Kill rate ([2]; 10.0 ppm in emulsion): 100%
- mortality at 0.02 mg [6, 10]: 80%
- mortality at 0.002 % [3]: 80%
- mortality at 0.005 % [4, 9]: 100%

Compound: COP(=O)(OCC1CC1(Cl)Cl)Oc1ccc(Cl)cc1Cl (centres unmarked) [compound 26]
- mortality at 0.2 mg [6, 12]: 100%
- mortality at 0.02 % [4, 8]: 100%

Compound: COP(=O)(OCC1CC1(Cl)Cl)Oc1ccc([N+](=O)[O-])cc1 (centres unmarked) [compound 27]
- mortality at 0.02 mg ([1]; Blatta orientalis, 0.02 mg active ingredient per jar, read-out: Kill rate): 80%
- LD50 [5]: 0.057 μg/fly
- Kill rate ([2]; 1.0 ppm in emulsion): 100%
- mortality at 0.02 mg [6, 10]: 100%
- mortality at 0.001 % [3]: 100%
- mortality at 0.005 % [4, 9]: ~90%

Compound: COP(=O)(OCC1C(C)C1(Cl)Cl)Oc1cc(Cl)c(Cl)cc1Cl (centres unmarked) [compound 28]
- mortality at 0.2 mg [6, 12]: 80%
- mortality at 0.02 % [4, 8]: 100%

Compound: COP(=O)(OCC1C(C)C1(Cl)Cl)Oc1ccc(Cl)cc1Cl (centres unmarked) [compound 29]
- mortality at 0.02 % [4, 8]: 100%

Compound: COP(=O)(OCC1C(C)C1(Cl)Cl)Oc1ccc(SC)cc1 (centres unmarked) [compound 30]
- Kill rate ([2]; 10.0 ppm in emulsion): 100%
- mortality at 0.2 mg [6, 12]: 100%
- mortality at 0.01 % [4, 9]: 100%

Compound: COP(=O)(OCC1C(C)C1(Cl)Cl)Oc1ccc([N+](=O)[O-])cc1 (centres unmarked) [compound 31]
- mortality at 0.2 mg [1, 11]: 100%
- Kill rate ([2]; 5.0 ppm in emulsion): 100%
- mortality at 0.01 % [3]: 80%

Compound: COP(=O)(OCC1(C)CC1(Cl)Cl)Oc1ccc([N+](=O)[O-])cc1Cl (centres unmarked) [compound 32]
- Kill rate ([2]; 10.0 ppm in emulsion): 100%
- mortality at 0.2 mg [6, 12]: 100%
- mortality at 0.008 % ([4]; Aphis fabae, 0.008 wt % in formulation, read-out: Kill rate): 100%

Compound: COP(=O)(OCC1(C)CC1(Cl)Cl)Oc1ccc([N+](=O)[O-])c(C)c1 (centres unmarked) [compound 33]
- mortality at 0.2 mg [6, 12]: 80%
- mortality at 0.01 % [4, 9]: 100%
